Measured values reported in patent USRE38132E1, “Phenylpyrrolidines, phenylimidazolidines,3-phenyl-1,3-oxizolidines and 3-phenyl-1,3-thiazolidines and their use in the treatment of inflammatory disease” (Boehringer Ingelheim Pharmaceuticals, Inc., priority 1997, dated 2003).

Legend:
[1] = test system: cell bound fibronectin receptor (VLA4) with fibronectin, SKW3 cells; experiment: Inhibition of SKW3 cell binding to fibronectin (selectivity counter-assay); assay type: cell-based, human
Procedure, shortened: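 Plates coated with sICAM-1 (40 μg/mL) or fibronectin (100 μg/mL) for 1 h; SKW3 cells in RPMI/15% FBS activated with PMA (50 μg/mL final) added with compound, 2 h at 37° C. Unbound cells washed off; value is concentration (μM) giving 50% binding inhibition.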

[2] = test system: human MLR, peripheral blood mononuclear cells; experiment: Inhibition of the mixed lymphocyte reaction (MLR), tritiated thymidine uptake; assay type: cell-based; set-up: key: Data are reported as “+” or “−” at a given concentration (in μM); Data are reported as “+” or “−” at a given concentration (in μM)
Experimental: Assay to Determine Inhibition the Mixed Lymphocyte Reaction
As discussed above, ICAM-1 is necessary for effective cellular interactions during an immune response mediated through LFA-1-dependent cell adhesion. When lymphocytes from two unrelated individuals are cultured together, blast transformation and cell proliferation of the lymphocytes are observed. This response is known as a mixed lymphocyte reaction (MLR) and is analogous to the response of lymphocytes to the 10 addition of antigens or mitogens (Immunology: The Science of Self-Nonself Discrimination; Klein, J., Ed.; John Wiley & Sons: NY, 1982, pp 453-458).
This assay protocol is used to determine the effect of a test compound on the human MLR.
Description of Assay Protocol:
Peripheral blood is obtained from normal, healthy donors by venipuncture. The blood is collected in heparinized tubes and diluted 1:1 at room temperature with Puck's G (GIBCO) balanced salt solution (BSS). The blood mixture (20 mL) is layered over 15 mL of a Ficoll/Hypaque density gradient (Pharmacia, density=1.078, room temperature) and centrifuged at 1000·g for 20 minutes. The interface is then collected and washed 3 times in Puck's G. The cells are counted on a hemocytometer and resuspended in RPMI 1640 culture medium (GIBCO) containing 0.5% of gentamicin, 1 mM L-glutamine (GICO) and 5% heat inactivated (56° C., 30 min) human AB sera (Flow Laboratories) (hereafter referred to as RPMI-culture medium).
Stimulator cells (cells that have been treated with irradiation so that they are unable to proliferate) from a separate donor are cultured with the responder cells at the same concentration. Test compound is added to wells at various concentrations. The total volume per culture is 0.2 mL. Controls include compound vehicle alone (DMSO), responder cells alone, and stimulator cells alone. The culture plates are incubated at 37° C. in a 5% CO2-humidified air atmosphere for 5 days.
The wells are pulsed with 0.5 μCi of tritiated thymidine (^3HT) (New England Nuclear) for the last 18 h of culture. In some cases a two-way MLR can be performed. The protocol is the same except that the second donor's cells are not inactivated by irradiation.
The cells are harvested onto glass fiber filters using an automated multiple sample harvester (Skatron, Norway), and rinsed with water and methanol. The filters are oven dried and counted in Aquasol in a Beckman (LS-3801) liquid scintillation counter.
Data are reported as “+” or “−” at a given concentration (in μM).

[3] = test system: SKW3 cells
[4] = molecular target: T1, interaction of ICAM-1 with the Leukointegrin CD18/CD11a (LFA-1) (Homo sapiens, UniProt P05107+P20701); experiment: Assay to determine inhibition of LFA-1 binding to ICAM-1 (immunopurified LFA-1 on plate-bound sICAM-1, ELISA readout); conditions: values marked e approximated from incomplete dose-response curve
T1 construct: endogenous in cells; sICAM-1: made in house, secreted from transfected CHO DUX cells
T1 sequence (P20701 26-1170): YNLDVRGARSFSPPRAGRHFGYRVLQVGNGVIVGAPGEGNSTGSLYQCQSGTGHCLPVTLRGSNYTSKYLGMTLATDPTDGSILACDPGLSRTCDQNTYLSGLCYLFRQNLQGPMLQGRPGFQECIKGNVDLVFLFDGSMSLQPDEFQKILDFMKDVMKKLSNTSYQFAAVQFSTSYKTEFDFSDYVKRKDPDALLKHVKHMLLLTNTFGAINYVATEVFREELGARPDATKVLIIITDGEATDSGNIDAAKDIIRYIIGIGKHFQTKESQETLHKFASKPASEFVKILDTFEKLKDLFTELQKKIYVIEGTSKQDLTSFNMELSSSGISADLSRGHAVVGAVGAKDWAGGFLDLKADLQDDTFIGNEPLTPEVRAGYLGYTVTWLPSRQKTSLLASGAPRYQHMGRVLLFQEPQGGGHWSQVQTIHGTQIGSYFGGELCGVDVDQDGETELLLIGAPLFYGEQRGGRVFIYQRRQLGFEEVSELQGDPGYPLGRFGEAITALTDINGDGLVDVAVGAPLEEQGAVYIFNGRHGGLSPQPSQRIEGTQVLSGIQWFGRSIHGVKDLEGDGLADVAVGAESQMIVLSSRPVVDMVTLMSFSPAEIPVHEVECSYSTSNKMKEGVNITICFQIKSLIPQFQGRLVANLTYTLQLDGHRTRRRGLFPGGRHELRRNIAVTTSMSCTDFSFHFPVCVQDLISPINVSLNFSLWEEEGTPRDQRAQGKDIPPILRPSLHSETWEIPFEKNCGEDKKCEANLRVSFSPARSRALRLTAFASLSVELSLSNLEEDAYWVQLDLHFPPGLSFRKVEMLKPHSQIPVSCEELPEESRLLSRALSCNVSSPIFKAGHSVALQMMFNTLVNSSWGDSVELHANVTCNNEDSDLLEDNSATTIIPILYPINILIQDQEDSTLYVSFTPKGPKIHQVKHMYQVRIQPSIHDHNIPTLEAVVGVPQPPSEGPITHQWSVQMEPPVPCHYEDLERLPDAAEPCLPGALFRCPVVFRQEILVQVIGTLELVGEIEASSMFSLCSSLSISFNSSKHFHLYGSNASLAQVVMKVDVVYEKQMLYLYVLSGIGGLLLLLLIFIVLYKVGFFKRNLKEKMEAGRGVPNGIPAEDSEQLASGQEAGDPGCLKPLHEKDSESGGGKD
T1 sequence (P05107 23-769): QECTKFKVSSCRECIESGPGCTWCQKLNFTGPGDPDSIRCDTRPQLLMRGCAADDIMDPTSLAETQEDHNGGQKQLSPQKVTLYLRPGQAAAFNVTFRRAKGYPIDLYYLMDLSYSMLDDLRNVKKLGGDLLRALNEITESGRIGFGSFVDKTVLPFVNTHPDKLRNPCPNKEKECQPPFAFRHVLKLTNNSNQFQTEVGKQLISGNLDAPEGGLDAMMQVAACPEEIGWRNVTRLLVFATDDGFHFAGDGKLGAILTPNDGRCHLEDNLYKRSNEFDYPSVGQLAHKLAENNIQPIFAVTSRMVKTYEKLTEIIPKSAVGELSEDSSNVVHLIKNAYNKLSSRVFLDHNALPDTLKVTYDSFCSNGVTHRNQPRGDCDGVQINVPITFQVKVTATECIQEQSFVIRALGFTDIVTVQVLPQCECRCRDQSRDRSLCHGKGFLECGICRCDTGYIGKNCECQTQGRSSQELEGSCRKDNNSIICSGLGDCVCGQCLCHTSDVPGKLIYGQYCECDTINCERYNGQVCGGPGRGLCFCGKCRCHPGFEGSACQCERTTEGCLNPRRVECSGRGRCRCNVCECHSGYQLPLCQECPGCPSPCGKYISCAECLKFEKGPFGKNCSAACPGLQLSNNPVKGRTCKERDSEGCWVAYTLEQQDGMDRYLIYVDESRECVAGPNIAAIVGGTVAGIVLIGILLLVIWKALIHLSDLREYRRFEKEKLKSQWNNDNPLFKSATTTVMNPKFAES

SMILES | Assay to Detect SKW3 Cells Binding to FIBRONECTIN IC50 ([1]; values marked c: no inhibition observed up to highest dose) | Mixed Lymphocyte Reaction MLR +/− ([2]; at 50 μM) | Cellular Toxicity Assay MTT LD50 [3] [µM] | IC50 ([1]; Homo sapiens, SKW3, values marked c: no inhibition observed up to highest dose, read-out: Assay to Detect SKW3 Cells Binding to FIBRONECTIN IC50) [µM] | Mixed Lymphocyte Reaction MLR +/− ([2]; at 25 μM) | Kd [4] [µM]
C[C@]1(Cc2ccc(Br)cc2)NC(=O)N(c2cc(Cl)cc(Cl)c2)C1=O [Example 29] | No inh^c | +(50) | 63 to 125 |  |  | 
CC(=O)N1C(=O)N(c2cc(Cl)cc(Cl)c2)C(=O)[C@@]1(C)Cc1ccc(Br)cc1 [Example 102] |  |  | >400 | > 200 | +(25) | 0.06
